Assay results: ChEMBL document CHEMBL1146560, “The isolation and structure elucidation of Tasiamide B, a 4-amino-3-hydroxy-5-phenylpentanoic acid containing peptide from the marine Cyanobacterium Symploca sp” (J Nat Prod, 2003)
*1 amine or outer side, *2 acyl side, *3 side chain or, on linkers, in order; H or OH if unused. Where a SMILES comes first, the peptide text is derived from it. [ ]: non-standard residue; d: D form. Ahppa(3S,4S) = O=C(C[C@H](O)[C@H](Cc1ccccc1)N[*:1])[*:2]; dNMeF = CN[C@H](Cc1ccccc1)C(=O)O; NMeQ = CN[C@@H](CCC(N)=O)C(=O)O; Lac = C[C@H](O)C(=O)O

Test system: KB
Test: Cytotoxicity against human KB cells
Type: functional, cell-based

Work on COC(=O)[C@@H]1CCCN1C(=O)[C@@H](Cc1ccccc1)N(C)C(=O)[C@H](C)NC(=O)[C@H](CC(C)C)NC(=O)C[C@H](O)[C@H](Cc1ccccc1)NC(=O)[C@H](CCC(N)=O)N(C)C(=O)[C@@H](NC(=O)[C@H](C)O)C(C)C [TASIAMIDE B] (H-[Lac]V[NMeQ][Ahppa(3S,4S)]LA[dNMeF]P-OMe) yielded an IC50 of 800 nM.
